We go through seven molecules from PubChem BioAssay (NCI).

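Cells were grown in 96-well plates and exposed to each compound for 48 hours at five concentrations; endpoints were interpolated linearly between bracketing concentrations, or set to the highest concentration if not reached. The concentration for full growth arrest is given as TGI.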

Among the test systems are SK-MEL-2 melanoma; U251 CNS; NCI-H460 lung; HCT-116 colon; MDA-N; HCC-2998 colon; A498 renal; MOLT-4 leukemia; RPMI-8226 leukemia; SK-MEL-5 melanoma; MDA-MB-435; HOP-92 NSCLC; TK-10 renal; T-47D breast; NCI/ADR-RES ovarian; KM12 colon; NCI-H522 lung; HS 578T breast; HT29 colon.
Assay in all cases: NCI tumour cell line growth inhibition, 48 h

As for `O=C(N/N=C/c1ccc2c(c1)OCO2)Nc1ccccc1Cl`, the TGI in the assay with SK-MEL-2 melanoma was 25.2 µM; with U251 CNS it was more than 100 µM; in the assay with NCI-H460 lung it was 16.6 µM; in the assay with HCT-116 colon it was more than 100 µM; in the assay on MDA-N, 0.501 µM; in the assay on HCC-2998 colon, 5.14 µM. For the same molecule, the TGI in the assay on A498 renal was 35.6 µM; with MOLT-4 leukemia, more than 100 µM; in the assay on RPMI-8226 leukemia, more than 56.2 µM; with SK-MEL-5 melanoma it was 15.3 µM; in the assay with MDA-MB-435, 1.33 µM; with HOP-92 NSCLC, more than 40 µM. Also, the TGI in the assay with TK-10 renal was 21 µM; with T-47D breast, more than 38.3 µM; in the assay with NCI/ADR-RES ovarian, 2.4 µM; with KM12 colon, more than 100 µM; in the assay with NCI-H522 lung, 1.1 µM; in the assay on HS 578T breast it was 8.25 µM. Further, in the assay with HT29 colon, the TGI is more than 49.1 µM.

With `CC(C)=CCC[C@@H](C)C1=C(O)C(O)C(C)=C2N=C(c3ccccc3)C(=O)OC21` (stereo partly drawn), the TGI was 6.75 µM in the assay on SK-MEL-2 melanoma; more than 25 µM in the assay with U251 CNS; more than 17 µM with NCI-H460 lung; more than 8.46 µM in the assay on HCT-116 colon; more than 25 µM in the assay on MDA-N; 21.2 µM in the assay on HCC-2998 colon. Also, the TGI in the assay with A498 renal was more than 13.1 µM; in the assay with MOLT-4 leukemia it was more than 19.3 µM; with RPMI-8226 leukemia it was more than 7.03 µM; in the assay with SK-MEL-5 melanoma, 6.32 µM; in the assay on MDA-MB-435, more than 25 µM; with HOP-92 NSCLC it was more than 7.8 µM. Moreover, the TGI in the assay on TK-10 renal is more than 25 µM; in the assay on T-47D breast it was 8.66 µM; in the assay on NCI/ADR-RES ovarian, 3.13 µM; with KM12 colon, more than 18.3 µM; in the assay with NCI-H522 lung it was 1.9 µM; in the assay on HS 578T breast, 13.4 µM. In addition, in the assay with HT29 colon, the TGI is 18.5 µM.

As to `CC(C)(C)[Si](C)(C)O[C@@H](C(=O)OC1C=CCCC1)[C@@H](NC(=O)c1ccccc1)c1ccccc1` (stereo partly drawn), the TGI is 48.6 µM in the assay with SK-MEL-2 melanoma; more than 100 µM in the assay on U251 CNS; 42.2 µM in the assay on NCI-H460 lung; more than 100 µM with HCT-116 colon; more than 100 µM with MDA-N; 44.4 µM in the assay with HCC-2998 colon. Further, the TGI is more than 100 µM with A498 renal; 39.3 µM in the assay with MOLT-4 leukemia; 9.89 µM in the assay on RPMI-8226 leukemia; 37.2 µM in the assay with SK-MEL-5 melanoma; more than 100 µM with MDA-MB-435; 99.5 µM with HOP-92 NSCLC. Moreover, the TGI is more than 100 µM in the assay on TK-10 renal; 98 µM with T-47D breast; more than 100 µM in the assay with NCI/ADR-RES ovarian; more than 100 µM in the assay with KM12 colon; 63.6 µM with NCI-H522 lung; more than 100 µM with HS 578T breast. This molecule also had a TGI with HT29 colon of 49.5 µM.

As to `Cc1ccc2c(c1)C(=O)/C(=N/Nc1ccc(Cl)cc1)CCO2`, the TGI in the assay with SK-MEL-2 melanoma is 54.6 µM; with U251 CNS, more than 100 µM; with NCI-H460 lung it was more than 100 µM; in the assay on HCT-116 colon, more than 100 µM; with MDA-N, more than 100 µM; in the assay with HCC-2998 colon, more than 100 µM. For the same molecule, the TGI in the assay on A498 renal, with MOLT-4 leukemia, in the assay on RPMI-8226 leukemia, in the assay on SK-MEL-5 melanoma, with MDA-MB-435 and in the assay on HOP-92 NSCLC was more than 100 µM in each case. The TGI with TK-10 renal, in the assay with T-47D breast, in the assay with NCI/ADR-RES ovarian, in the assay on KM12 colon, in the assay with NCI-H522 lung and in the assay with HS 578T breast was more than 100 µM each time. Also, in the assay on HT29 colon, the TGI is more than 100 µM.

With `CN1CCC2(CC1)SC[C@H]1C(=O)N(c3ccc(Cl)cc3)C(=O)N12`, the TGI in the assay with SK-MEL-2 melanoma, with U251 CNS, with NCI-H460 lung, in the assay on HCT-116 colon, in the assay on MDA-N and with HCC-2998 colon was more than 100 µM throughout. Besides, the TGI in the assay on A498 renal is 86.3 µM; in the assay on MOLT-4 leukemia, more than 100 µM; in the assay with RPMI-8226 leukemia, more than 100 µM; with SK-MEL-5 melanoma it was more than 100 µM; in the assay on MDA-MB-435 it was more than 100 µM; in the assay with HOP-92 NSCLC, more than 100 µM. Further, the TGI in the assay on TK-10 renal, in the assay with T-47D breast, in the assay with NCI/ADR-RES ovarian, with KM12 colon, in the assay with NCI-H522 lung and in the assay on HS 578T breast was more than 100 µM each time. Besides, the TGI in the assay on HT29 colon was more than 100 µM.

As to `O=C1C(=O)c2c(oc(=O)c3ccccc23)-c2ccccc21`, the TGI in the assay on SK-MEL-2 melanoma, in the assay with U251 CNS, in the assay with NCI-H460 lung, in the assay on HCT-116 colon, in the assay with MDA-N and in the assay with HCC-2998 colon was more than 25 µM throughout. Further, the TGI in the assay with A498 renal was more than 25 µM; in the assay on MOLT-4 leukemia it was more than 25 µM; in the assay on RPMI-8226 leukemia, more than 25 µM; with SK-MEL-5 melanoma, more than 25 µM; in the assay on MDA-MB-435, 20.9 µM; in the assay with HOP-92 NSCLC, more than 25 µM. Besides, the TGI with TK-10 renal, with T-47D breast, in the assay on NCI/ADR-RES ovarian, with KM12 colon, in the assay on NCI-H522 lung and in the assay on HS 578T breast was more than 25 µM throughout. In the assay on HT29 colon, this molecule gave a TGI of more than 25 µM.

Turning to `CC1(C)CN=C(c2ccc3c(c2)Cc2cc(C4=NCC(C)(C)N4)ccc2-3)N1`, the TGI in the assay on SK-MEL-2 melanoma was 49.9 µM; in the assay with U251 CNS it was 64.8 µM; in the assay on NCI-H460 lung, more than 100 µM; with HCT-116 colon it was more than 100 µM; in the assay with MDA-N, more than 100 µM; in the assay with HCC-2998 colon, 74.1 µM. The TGI with A498 renal was more than 100 µM; with MOLT-4 leukemia it was more than 100 µM; with RPMI-8226 leukemia, 65.8 µM; with SK-MEL-5 melanoma, more than 100 µM; in the assay on MDA-MB-435, 98.9 µM; with HOP-92 NSCLC it was more than 100 µM. In addition, the TGI is more than 100 µM in the assay with TK-10 renal; more than 100 µM in the assay with T-47D breast; more than 100 µM in the assay with NCI/ADR-RES ovarian; more than 100 µM in the assay with KM12 colon; 83.6 µM in the assay on NCI-H522 lung; more than 100 µM in the assay with HS 578T breast. The molecule also registered a TGI in the assay on HT29 colon of more than 100 µM.
